Results taken from US8802597B2, “Herbicidal pyrimidines” (E I du Pont de Nemours and Company, priority 2003, dated 2014).

What was measured:
Assay type in all cases: in vivo
[1] = test system: bermudagrass (Cynodon dactylon); test: Test C pre/postemergence; details: for Bermudagrass plant response rating: scale 0 to 100 (0 no effect, 100 complete control)
How it was run: (§1)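 Seeds sown and sprayed preemergence with test compound in non-phytotoxic solvent containing surfactant; postemergence sprays, same formulation, went onto plants 2 to 18 cm tall (1- to 4-leaf stage). Plants held in greenhouse 12 to 14 days, then visually rated against untreated controls on a 0–100 scale (0 no effect, 100 complete control).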

[2] = test system: common ragweed (Ambrosia elatior); test: Test C pre/postemergence; details: for Ragweed plant response rating: scale 0 to 100 (0 no effect, 100 complete control)
How it was run: as §1

[3] = test system: goosegrass (Eleusine indica); test: Test C pre/postemergence; details: for Goosegrass plant response rating: scale 0 to 100 (0 no effect, 100 complete control)
How it was run: as §1

[4] = test system: pigweed (Amaranthus retroflexus); test: Test C pre/postemergence; details: for Pigweed plant response rating: scale 0 to 100 (0 no effect, 100 complete control)
How it was run: as §1

[5] = test system: velvetleaf (Abutilon theophrasti); test: Test C pre/postemergence; details: for Velvetleaf plant response rating: scale 0 to 100 (0 no effect, 100 complete control)
How it was run: as §1

[6] = test system: woolly cupgrass (Eriochloa villosa); test: Test C pre/postemergence; details: for Cupgrass, Woolly plant response rating: scale 0 to 100 (0 no effect, 100 complete control)
How it was run: as §1

[7] = test system: yellow nutsedge (Cyperus esculentus); test: Test C pre/postemergence; details: for Nutsedge, Yellow plant response rating: scale 0 to 100 (0 no effect, 100 complete control)
How it was run: as §1

[8] = test system: chickweed (Stellaria media); test: Test C postemergence; details: for Chickweed plant response rating: scale 0 to 100 (0 no effect, 100 complete control); for Plant response rating, Chickweed: scale 0 to 100
How it was run: as §1

[9] = Postemergence, 250 g ai/ha, scale 0 to 100
[10] = Postemergence, 500 g ai/ha, scale 0 to 100
[11] = Preemergence, 62 g ai/ha, scale 0 to 100, 0 no effect, 100 complete control
[12] = Preemergence, 125 g ai/ha, scale 0 to 100
[13] = Preemergence, 250 g ai/ha, scale 0 to 100
[14] = Preemergence, 500 g ai/ha, scale 0 to 100
[15] = Preemergence, 16 g ai/ha, scale 0 to 100, 0 no effect, 100 complete control
[16] = Preemergence, 31 g ai/ha, scale 0 to 100, 0 no effect, 100 complete control

CCCOC(=O)c1nc(C2CC2)nc(N)c1Br [Compound 15]
Bermudagrass plant response rating ([1]; Postemergence, 62 g ai/ha): 0 | Plant response rating, Bermudagrass [1, 9]: 65 | Plant response rating, Bermudagrass [1, 10]: 75 | Plant response rating, Bermudagrass ([1]; Postemergence, 125 g ai/ha, scale 0 to 100): 45 | Plant response rating, Bermudagrass [1, 11]: 0 | Plant response rating, Bermudagrass [1, 12]: 0 | Plant response rating, Bermudagrass [1, 13]: 0 | Plant response rating, Bermudagrass [1, 14]: 70 | Ragweed plant response rating ([2]; Postemergence, 62 g ai/ha): 75 | Ragweed plant response rating ([2]; Postemergence, 125 g ai/ha): 85 | Plant response rating, Ragweed [2, 9]: 90 | Plant response rating, Ragweed [2, 10]: 95 | Plant response rating, Ragweed [2, 11]: 90 | Plant response rating, Ragweed [2, 12]: 95 | Plant response rating, Ragweed [2, 13]: 100 | Plant response rating, Ragweed [2, 14]: 100 | Goosegrass plant response rating ([3]; Postemergence, 62 g ai/ha): 0 | Goosegrass plant response rating ([3]; Postemergence, 125 g ai/ha): 0 | Plant response rating, Goosegrass [3, 9]: 40 | Plant response rating, Goosegrass [3, 10]: 55 | Plant response rating, Goosegrass [3, 11]: 0 | Plant response rating, Goosegrass [3, 12]: 0 | Plant response rating, Goosegrass [3, 13]: 0 | Plant response rating, Goosegrass [3, 14]: 0 | Pigweed plant response rating ([4]; Postemergence, 62 g ai/ha): 65 | Pigweed plant response rating ([4]; Postemergence, 125 g ai/ha): 70 | Plant response rating, Pigweed [4, 9]: 85 | Plant response rating, Pigweed [4, 10]: 100 | Plant response rating, Pigweed [4, 11]: 90 | Plant response rating, Pigweed [4, 12]: 100 | Plant response rating, Pigweed [4, 13]: 100 | Plant response rating, Pigweed [4, 14]: 100 | Velvetleaf plant response rating ([5]; Postemergence, 62 g ai/ha): 65 | Velvetleaf plant response rating ([5]; Postemergence, 125 g ai/ha): 70 | Plant response rating, Velvetleaf [5, 9]: 85 | Plant response rating, Velvetleaf [5, 10]: 90 | Plant response rating, Velvetleaf [5, 11]: 80 | Plant response rating, Velvetleaf [5, 12]: 95 | Plant response rating, Velvetleaf [5, 13]: 100 | Plant response rating, Velvetleaf [5, 14]: 100 | Cupgrass, Woolly plant response rating ([6]; Postemergence, 62 g ai/ha): 0 | Cupgrass, Woolly plant response rating ([6]; Postemergence, 125 g ai/ha): 50 | Plant response rating, Cupgrass, Woolly [6, 9]: 65 | Plant response rating, Cupgrass, Woolly [6, 10]: 75 | Plant response rating, Cupgrass, Woolly [6, 11]: 0 | Plant response rating, Cupgrass, Woolly [6, 12]: 20 | Plant response rating, Cupgrass, Woolly [6, 13]: 85 | Plant response rating, Cupgrass, Woolly [6, 14]: 95 | Nutsedge, Yellow plant response rating ([7]; Postemergence, 62 g ai/ha): 0 | Nutsedge, Yellow plant response rating ([7]; Postemergence, 125 g ai/ha): 0 | Plant response rating, Nutsedge, Yellow [7, 9]: 0 | Plant response rating, Nutsedge, Yellow [7, 10]: 0 | Plant response rating, Nutsedge, Yellow [7, 11]: 0 | Plant response rating, Nutsedge, Yellow [7, 12]: 0 | Plant response rating, Nutsedge, Yellow [7, 13]: 0 | Plant response rating, Nutsedge, Yellow [7, 14]: 20 | Chickweed plant response rating ([8]; 62 g ai/ha): 20 | Plant response rating, Chickweed ([8]; 125 g ai/ha): 50 | Plant response rating, Chickweed ([8]; 250 g ai/ha): 65 | Plant response rating, Chickweed ([8]; 500 g ai/ha): 85

CCOC(=O)C(OC(C)=O)c1nc(C2CC2)nc(N)c1Br (centres unmarked) [Compound 47]
Plant response rating (scale of 0 to 100), Bermudagrass ([1]; Postemergence, 16 g ai/ha): 0 | Plant response rating (scale of 0 to 100), Bermudagrass ([1]; Postemergence, 31 g ai/ha): 0 | Bermudagrass plant response rating ([1]; Postemergence, 62 g ai/ha): 0 | Bermudagrass plant response rating ([1]; Postemergence, 125 g ai/ha): 15 | Plant response rating, Bermudagrass [1, 15]: 0 | Plant response rating, Bermudagrass [1, 16]: 0 | Plant response rating, Bermudagrass [1, 11]: 0 | Plant response rating, Bermudagrass [1, 12]: 95 | Plant response rating (scale of 0 to 100), Ragweed ([2]; Postemergence, 16 g ai/ha): 0 | Plant response rating (scale of 0 to 100), Ragweed ([2]; Postemergence, 31 g ai/ha): 0 | Ragweed plant response rating ([2]; Postemergence, 62 g ai/ha): 40 | Ragweed plant response rating ([2]; Postemergence, 125 g ai/ha): 80 | Plant response rating, Ragweed [2, 15]: 0 | Plant response rating, Ragweed [2, 11]: 45 | Plant response rating, Ragweed [2, 12]: 65 | Plant response rating (scale of 0 to 100), Goosegrass ([3]; Postemergence, 16 g ai/ha): 0 | Plant response rating (scale of 0 to 100), Goosegrass ([3]; Postemergence, 31 g ai/ha): 0 | Goosegrass plant response rating ([3]; Postemergence, 62 g ai/ha): 0 | Goosegrass plant response rating ([3]; Postemergence, 125 g ai/ha): 0 | Plant response rating, Goosegrass [3, 15]: 0 | Plant response rating, Goosegrass [3, 16]: 45 | Plant response rating, Goosegrass [3, 11]: 85 | Plant response rating, Goosegrass [3, 12]: 90 | Plant response rating (scale of 0 to 100), Pigweed ([4]; Postemergence, 16 g ai/ha): 0 | Plant response rating (scale of 0 to 100), Pigweed ([4]; Postemergence, 31 g ai/ha): 15 | Pigweed plant response rating ([4]; Postemergence, 62 g ai/ha): 45 | Pigweed plant response rating ([4]; Postemergence, 125 g ai/ha): 70 | Plant response rating, Pigweed [4, 15]: 0 | Plant response rating, Pigweed [4, 16]: 80 | Plant response rating, Pigweed [4, 11]: 85 | Plant response rating, Pigweed [4, 12]: 85 | Plant response rating (scale of 0 to 100), Velvetleaf ([5]; Postemergence, 16 g ai/ha): 0 | Plant response rating (scale of 0 to 100), Velvetleaf ([5]; Postemergence, 31 g ai/ha): 0 | Velvetleaf plant response rating ([5]; Postemergence, 62 g ai/ha): 0 | Velvetleaf plant response rating ([5]; Postemergence, 125 g ai/ha): 0 | Plant response rating, Velvetleaf [5, 15]: 0 | Plant response rating, Velvetleaf [5, 16]: 20 | Plant response rating, Velvetleaf [5, 11]: 20 | Plant response rating, Velvetleaf [5, 12]: 50 | Plant response rating (scale of 0 to 100), Cupgrass, Woolly ([6]; Postemergence, 16 g ai/ha): 0 | Plant response rating (scale of 0 to 100), Cupgrass, Woolly ([6]; Postemergence, 31 g ai/ha): 0 | Cupgrass, Woolly plant response rating ([6]; Postemergence, 62 g ai/ha): 0 | Cupgrass, Woolly plant response rating ([6]; Postemergence, 125 g ai/ha): 0 | Plant response rating, Cupgrass, Woolly [6, 15]: 0 | Plant response rating, Cupgrass, Woolly [6, 16]: 0 | Plant response rating, Cupgrass, Woolly [6, 11]: 0 | Plant response rating, Cupgrass, Woolly [6, 12]: 0 | Plant response rating (scale of 0 to 100), Nutsedge, Yellow ([7]; Postemergence, 16 g ai/ha): 0 | Plant response rating (scale of 0 to 100), Nutsedge, Yellow ([7]; Postemergence, 31 g ai/ha): 0 | Nutsedge, Yellow plant response rating ([7]; Postemergence, 62 g ai/ha): 0 | Nutsedge, Yellow plant response rating ([7]; Postemergence, 125 g ai/ha): 0 | Plant response rating, Nutsedge, Yellow [7, 15]: 0 | Plant response rating, Nutsedge, Yellow [7, 16]: 0 | Plant response rating, Nutsedge, Yellow [7, 11]: 0 | Plant response rating, Nutsedge, Yellow [7, 12]: 0 | Plant response rating (scale of 0 to 100), Chickweed ([8]; 16 g ai/ha): 0 | Plant response rating (scale of 0 to 100), Chickweed ([8]; 31 g ai/ha): 0 | Chickweed plant response rating ([8]; 62 g ai/ha): 0 | Chickweed plant response rating ([8]; 125 g ai/ha): 0
